For orientation: Ki means the dissociation constant of the complex between target and ligand, obtained from inhibition or displacement. Low readings indicate higher affinity, high ones lower affinity.

This assay addresses Glutamyl aminopeptidase (Oryctolagus cuniculus). Briefly: Inhibition of aminopeptidase A (APA).
In turn, `NC(CS)CC(C(=O)O)C(=O)O` (stereo not given) [2-(2-Amino-3-mercapto-propyl)-malonic acid] came in with a Ki of 3500 nM.

Molecule `NC(CS)CCC(C(=O)O)C(=O)O` (stereo not given) [2-(3-Amino-4-mercapto-butyl)-malonic acid] showed a Ki of 280 nM. `NC(CS)CCCCC(=O)O` (stereo not given) [6-Amino-7-mercapto-heptanoic acid] returned a Ki of 1600 nM. Next, `NC(CS)CCCP(=O)(O)O` (stereo not given) [(4-Amino-5-mercapto-pentyl)-phosphonic acid]: 510 nM.

Take `N[C@H](CS)CCCS(=O)(=O)O` [Sodium; (S)-4-amino-5-mercapto-pentane-1-sulfonate]: the inhibitory constant (Ki) amounted to 370 nM.

Values taken from BindingDB's records for doi:10.1021/jm00044a016 (University of Paris, 1994).
